Holding throughout (format): in vivo, BALB/c mice
The subject of one data set is A20 cells. Kind of data set: Intratumoral vs subcutaneous TLR9 agonist in A20 lymphoma model (Example 2). Here is the method: BALB/c mice (n=10) were implanted s.c with 3×10^6 A20 cells on the right flank. Treatment was initiated on day 8 with either intratumoral (i.t.) or subcutaneous (s.c.) injection of 2.5 mg/kg IMO-4. IMO-4 was given on days 8, 10, 12 and 14. Samples from placebo (PBS) control and IMO-4 treated tumor-bearing mice were collected on day 21 after tumor implantation. […] Intratumoral IMO-4 also modulated tumor checkpoint expression compared to subcutaneous administration thereby sensitizing the tumor microenvironment for combination with one or more checkpoint inhibitors (data not shown).

In another data set the test system is A20 lymphoma. Kind of data set: Intratumoral TLR9 agonist in A20 lymphoma model, treated and distant tumors (Example 3).
The test system of data set [1] is CT26 cells. Kind of data set: Intratumoral TLR9 agonist in CT26 colon carcinoma model, treated and distant tumors (Example 4). Here is the method: BALB/c mice (n=9) were implanted s.c with 2×10^6 CT26 cells on the right and left flank. Treatment was initiated on day 7 with intratumoral injection in the left flank with 2.5 mg/kg IMO-4. IMO-4 was given on days 7, 9, 11, 13 and 15. Samples from placebo (PBS) control and IMO-4 treated tumor-bearing mice were collected on day 27 after tumor implantation. […] Intratumoral IMO-4 also modulated tumor checkpoint expression thereby sensitizing the tumor microenvironment for combination with one or more checkpoint inhibitors (data not shown).

The next data set relates to B16 cells. The data set is described as follows: Intratumoral TLR9 agonist in B16 melanoma model, treated and distant tumors (Example 5). As to the method:
[…] mice (n=9) were implanted s.c with 1×10^6 B16 cells on the right and left flank. Treatment was initiated on day 7 with intratumoral injection in the left flank with of 2.5 mg/kg IMO-4. IMO-4 was given on days 7, 9, 11, 13 and 15. Samples from placebo (PBS) control and IMO-4 treated tumor-bearing mice were collected on day 22 after tumor implantation. […] Intratumoral IMO-4 also modulated tumor checkpoint expression thereby sensitizing the tumor microenvironment for combination with one or more checkpoint inhibitors (data not shown).

Data set [2] has as its system murine colon carcinoma CT26 cells. The data set is described as follows: TLR9 agonist and anti-PD-1 mAb combination, CT26 treated and distant tumors (Example 7). Particulars: FIG. 11. As to the method: BALB/c mice (n=8 per group) were implanted s.c with 1×10^7 murine colon carcinoma CT26 cells in right flank (Tumor 1) and left flank (Tumor 2). Treatment was initiated on day 7 when tumor volume on reaches 200 to 300 mm^3. 2.5 mg/kg IMO-4 (50 μg in 100 μl PBS) was i.t injected at right tumor nodules and anti-PD-1 mAb (10 mg/kg, 200 μg/mouse) was administered by i.p injection either alone or co-administered on days 7, 8, 11 and 12 for total 4 times. Tumor nodules were collected at day 14.

For data set [3], the system named is CT26 cells. Kind of data set: TLR9 agonist and anti-IDO1 inhibitor combination, CT26 treated tumors and systemic lung metastases (Example 9). The note with it: compared with PBS group (nodules infiltrating most of the lung tissues); FIG. 16 legend. As to the method: BALB/c mice were implanted s.c with 1×10^7 CT26 cells on right flank. The mice were than i.v injected with 3×10^6 CT26 cells to establish lung metastases. Treatment was initiated on day 4. 2.5 mg/kg IMO-4 was administered intratumorally into solid tumors on the right flank and 75 mg/kg anti-IDO1 inhibitor was administered orally (p.o.). IMO-4 and anti-IDO1 inhibitor were given either alone or co-administered on days 4, 5, 7, and 8. Anti-IDO1 was administered twice. Samples from control, IMO-4, anti-IDO1 inhibitor or IMO-4 and anti-IDO1 inhibitor treated tumor-bearing mice were collected. FIGS. 14 through 17 show the effects of IMO-4 and anti-IDO1 inhibitor on directly treated tumors and systemic lung metastasis.

Regarding “5-TCGAACG1TTCG1-X-G1CTTG1CAAG1CT-5′ (chain 1 TCGAACGTTCG; chain 2 TCGAACGTTCG; two copies joined 3'-3' by glycerol linker; G1 modified; modified_base (3)..(3) 2′-deoxy-7-deazaguanosine; modified_base (7)..(7) 2′-deoxy-7-deazaguanosine; modified_base (11)..(11) 2′-deoxy-7-deazaguanosine) [IMO-4]”, the antitumor activity result in the data set on A20 cells (intratumoral 2.5 mg/kg on days 8, 10, 12, 14, FIG. 3) was “potent antitumor activity”. The “CD3+ TIL infiltration” value with A20 cells (intratumoral 2.5 mg/kg, samples day 21, FIG. 3) is “induced”. For the same substance, the tumor checkpoint expression entry in the data set with A20 cells (intratumoral compared to subcutaneous administration, data not shown) is given as “modulated”; with A20 lymphoma (intratumoral, data not shown) it was “modulated”; in the data set on CT26 cells [1] (intratumoral, data not shown) it was “modulated”; in the data set with B16 cells (intratumoral, data not shown), “modulated”. The “antitumor activity, treated and distant tumor nodules” value is “potent antitumor activity in both treated and distant tumor nodules” with A20 lymphoma (intratumoral in left flank, 2.5 mg/kg on days 8, 10, 12, 14, FIG. 4); “potent antitumor activity in both treated and distant tumor nodules” in the data set on CT26 cells [1] (intratumoral in left flank, 2.5 mg/kg on days 7, 9, 11, 13, 15, FIG. 5); “potent antitumor activity in both treated and distant tumor nodules” in the data set on B16 cells (intratumoral in left flank, 2.5 mg/kg on days 7, 9, 11, 13, 15, FIG. 6). Besides, the “CD3+ cells in tumor tissue” value in data set [2] (compared with few CD3+ cells in PBS (vehicle) mice) was “a large number of CD+3 cells”. Also, the “T lymphocyte infiltration into tumor tissues” value in data set [2] (tumor nodules collected day 14) is given as “increases”. Also, the “tumor nodules in lung tissues” value in the data set with CT26 cells [3] is “tumor nodules are smaller than that of the PBS group”.
